Experimental data reported in patent publication US20080219922A1, “Alzheimer's Disease Imaging Agents” (priority 2005, published 2008).

Assays:
[1] = Partition coefficient determination (1-octanol/phosphate buffer pH 7.4); assay type: physicochemical; conditions: 1-octanol / 0.02 M sodium phosphate buffer pH 7.4
Protocol: Measurement of distribution coefficient of [^18F]tracer was performed based on the method described by Wilson et al. [Labelled Compd. Radiopharm., 42:1277-1288 (1999)] using 0.02 M sodium phosphate buffer at pH 7.4 and 1-octanol. Basically, the test tubes containing ˜20 μCi of the radiotracer and 2 mL each of 1-octanol and phosphate buffer were vortexed for 10 min at room temperature and then centrifuged for 5 min. Samples (0.5 mL) from 1-octanol and buffer layers were counted in a Packard Cobra II auto-gamma counter (Perkin-Elmer, Downers Grove, Ill.) and decay corrected. The measurement was repeated three times. The log P7.4 value was calculated as follows: log P7.4 log [counts in octanol phase/counts in buffer phase].

[2] = rhesus monkey, in vivo, iv
Protocol: In order to assess brain uptake and clearance, FZ 202-1 and FZ 202-2 were radiolabeled with fluorine-18. The kinetics of fluorine-18 labeled FZ 202-1 and FZ 202-2 in brain were determined by microPET in rhesus monkeys.
PET study was performed in a male rhesus monkey weighing 6-10 kg using a Concorde MicroPET P4 imaging system. The animal was initially anesthetized with an intramuscular injection of Telazol (3 mg/kg), intubated, and then maintained on a 1% isoflurane/5% oxygen gas mixture throughout the imaging session. The monkey was placed in the PET scanner and the head was immobilized. Blood pressure, heart and respiratory rates, and expired CO2 and oxygen saturation levels were monitored continuously during the PET study. A transmission scan was obtained with a germanium-68 source prior to the PET study for attenuation correction of the emission data. Brain emission scans were performed following the intravenous administration of [^18F]tracer (5 mCi). Serial dynamic transaxial images were acquired for a total of 120 min and then binned for analysis. Emission data acquired were subject to iterative reconstruction (OSEM, two iterations, 40 subsets) with no pre- or postfiltering to provide images with an isotropic resolution of 3 mm fwhm. […]

[3] = target: T1, amyloid plaques in sections from postmortem AD brains (Homo sapiens, UniProt P05067); assay: In vitro film autoradiography of postmortem AD brain sections; assay type: binding
T1 construct: abundant amyloid plaques or deposits composed of amyloid-β(Aβ) peptides; from tissue; host or cells: postmortem brain tissue sections of frontal lobe from an AD patient
T1 sequence (P05067 672-713 limits assumed): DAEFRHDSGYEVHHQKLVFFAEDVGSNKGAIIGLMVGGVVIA
From the text: FZ 202-1 in postmortem brain tissue sections of frontal lobe from an AD patient. A: AD tissue+[^18F] FZ 202-1. B: [^18F] […] C: […] [^18F]

Row | Log P7.4 [1] | radioactivity ratios of peak-to-115 min in cerebellum, frontal cortex and subcortical white matter ([2]; male) | bone uptake of radioactivity in the skull [2] | specific binding after pretreatment with nonradioactive PIB and IMPY ([3]; AD specimen, FIG. 3: +1 mM PIB, +10 mM IMPY) | Compound | specific binding to amyloid plaques (plaque labeling) ([3]; postmortem AD brain sections, frontal lobe, film autoradiography)
1 | 2.69 |  |  |  | Cc1cc2nc(-c3ccc(N(C)C)cc3)cn2nc1F [FZ 202-1] | 
2 | 2.83 |  |  |  | Cc1cc(F)nn2cc(-c3ccc(N(C)C)cc3)nc12 [FZ 202-2] | 
3 | 3.58 |  |  |  | CN(C)c1ccc(-c2cn3cc([125I])ccc3n2)cc1 [IMPY, reference compound] | 
4 |  | 2.5-4.9 | No bone uptake | eliminated | Cc1cc2nc(-c3ccc(N(C)C)cc3)cn2nc1F [[^18F]-FZ 202-1] | clearly observed in cortical gray matter, but not in the white matter
